The results in this text go back to the Kinase Knowledgebase extract (Sharma et al. 2016).

The target in assay [1] is PIK3CA (human) (UniProt P42336). As to the kind of experiment: Inhibition of PIK3CA Kinase Activity.
In assay [2] the target is PIK3CB (Human) (UniProt P42338). As to the kind of experiment: Inhibition of PIK3CB Kinase Activity.
For assay [3], the target named is PIK3CG (human) (UniProt P48736). As to the kind of experiment: Inhibition of PIK3CG Kinase Activity.
The target in assay [4] is PIK3CD (Human) (UniProt O00329). As to the kind of experiment: Inhibition of PIK3CD Kinase Activity.

Some results are limits rather than exact numbers.

Chain of PIK3CB (Human) (P42338 whole entry, looked up): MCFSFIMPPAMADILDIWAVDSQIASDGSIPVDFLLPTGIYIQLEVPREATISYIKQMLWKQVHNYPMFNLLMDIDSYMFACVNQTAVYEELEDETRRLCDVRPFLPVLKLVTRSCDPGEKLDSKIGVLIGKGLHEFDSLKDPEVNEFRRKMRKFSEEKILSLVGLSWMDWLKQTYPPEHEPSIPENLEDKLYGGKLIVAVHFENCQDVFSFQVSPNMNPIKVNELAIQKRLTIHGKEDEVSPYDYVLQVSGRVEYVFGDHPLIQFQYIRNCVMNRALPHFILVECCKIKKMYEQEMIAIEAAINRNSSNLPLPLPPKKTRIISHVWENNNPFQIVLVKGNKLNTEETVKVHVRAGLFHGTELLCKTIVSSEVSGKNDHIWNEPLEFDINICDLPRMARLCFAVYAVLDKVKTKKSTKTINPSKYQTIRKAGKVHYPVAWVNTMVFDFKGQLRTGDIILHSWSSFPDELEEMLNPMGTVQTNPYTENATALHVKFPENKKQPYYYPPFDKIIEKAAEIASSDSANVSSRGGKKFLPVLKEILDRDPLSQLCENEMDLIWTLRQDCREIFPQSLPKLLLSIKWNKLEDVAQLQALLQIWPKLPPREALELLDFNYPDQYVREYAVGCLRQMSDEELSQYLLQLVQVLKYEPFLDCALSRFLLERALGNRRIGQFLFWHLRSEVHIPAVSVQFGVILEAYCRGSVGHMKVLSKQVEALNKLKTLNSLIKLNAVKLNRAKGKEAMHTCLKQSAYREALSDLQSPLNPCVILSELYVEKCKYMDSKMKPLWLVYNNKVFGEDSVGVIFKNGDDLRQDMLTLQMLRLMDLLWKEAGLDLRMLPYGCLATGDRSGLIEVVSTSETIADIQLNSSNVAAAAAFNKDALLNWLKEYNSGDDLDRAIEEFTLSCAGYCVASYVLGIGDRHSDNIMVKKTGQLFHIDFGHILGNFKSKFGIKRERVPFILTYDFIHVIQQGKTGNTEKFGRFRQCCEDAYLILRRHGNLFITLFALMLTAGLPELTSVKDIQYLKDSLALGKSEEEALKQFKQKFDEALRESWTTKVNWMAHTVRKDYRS
Chain of PIK3CD (Human) (O00329 whole entry, looked up): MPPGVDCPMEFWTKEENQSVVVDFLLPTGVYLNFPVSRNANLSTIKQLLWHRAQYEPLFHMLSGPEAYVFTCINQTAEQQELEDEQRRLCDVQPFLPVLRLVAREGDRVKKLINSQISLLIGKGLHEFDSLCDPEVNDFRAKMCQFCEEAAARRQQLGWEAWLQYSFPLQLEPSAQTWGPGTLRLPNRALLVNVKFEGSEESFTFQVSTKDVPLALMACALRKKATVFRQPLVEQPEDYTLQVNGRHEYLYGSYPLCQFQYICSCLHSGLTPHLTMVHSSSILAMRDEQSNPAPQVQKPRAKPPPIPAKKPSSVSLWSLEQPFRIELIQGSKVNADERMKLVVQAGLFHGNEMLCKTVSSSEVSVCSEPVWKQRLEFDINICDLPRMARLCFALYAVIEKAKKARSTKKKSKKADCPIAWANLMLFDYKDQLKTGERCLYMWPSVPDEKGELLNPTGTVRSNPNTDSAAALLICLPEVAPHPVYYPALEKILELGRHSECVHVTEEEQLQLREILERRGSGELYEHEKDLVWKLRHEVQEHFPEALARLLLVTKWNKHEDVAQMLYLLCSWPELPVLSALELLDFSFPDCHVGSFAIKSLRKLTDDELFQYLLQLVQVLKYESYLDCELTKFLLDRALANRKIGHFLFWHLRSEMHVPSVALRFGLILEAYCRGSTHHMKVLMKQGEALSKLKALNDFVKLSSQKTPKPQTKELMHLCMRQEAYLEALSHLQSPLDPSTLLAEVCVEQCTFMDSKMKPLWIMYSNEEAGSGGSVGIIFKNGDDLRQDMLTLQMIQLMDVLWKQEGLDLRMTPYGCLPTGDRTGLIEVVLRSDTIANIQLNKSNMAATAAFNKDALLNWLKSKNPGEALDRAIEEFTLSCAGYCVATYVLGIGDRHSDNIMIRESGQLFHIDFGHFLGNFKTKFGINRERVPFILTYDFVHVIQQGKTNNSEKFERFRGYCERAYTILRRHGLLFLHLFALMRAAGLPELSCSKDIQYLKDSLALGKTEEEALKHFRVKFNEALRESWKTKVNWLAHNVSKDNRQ
Chain of PIK3CA (human) (P42336 whole entry, looked up): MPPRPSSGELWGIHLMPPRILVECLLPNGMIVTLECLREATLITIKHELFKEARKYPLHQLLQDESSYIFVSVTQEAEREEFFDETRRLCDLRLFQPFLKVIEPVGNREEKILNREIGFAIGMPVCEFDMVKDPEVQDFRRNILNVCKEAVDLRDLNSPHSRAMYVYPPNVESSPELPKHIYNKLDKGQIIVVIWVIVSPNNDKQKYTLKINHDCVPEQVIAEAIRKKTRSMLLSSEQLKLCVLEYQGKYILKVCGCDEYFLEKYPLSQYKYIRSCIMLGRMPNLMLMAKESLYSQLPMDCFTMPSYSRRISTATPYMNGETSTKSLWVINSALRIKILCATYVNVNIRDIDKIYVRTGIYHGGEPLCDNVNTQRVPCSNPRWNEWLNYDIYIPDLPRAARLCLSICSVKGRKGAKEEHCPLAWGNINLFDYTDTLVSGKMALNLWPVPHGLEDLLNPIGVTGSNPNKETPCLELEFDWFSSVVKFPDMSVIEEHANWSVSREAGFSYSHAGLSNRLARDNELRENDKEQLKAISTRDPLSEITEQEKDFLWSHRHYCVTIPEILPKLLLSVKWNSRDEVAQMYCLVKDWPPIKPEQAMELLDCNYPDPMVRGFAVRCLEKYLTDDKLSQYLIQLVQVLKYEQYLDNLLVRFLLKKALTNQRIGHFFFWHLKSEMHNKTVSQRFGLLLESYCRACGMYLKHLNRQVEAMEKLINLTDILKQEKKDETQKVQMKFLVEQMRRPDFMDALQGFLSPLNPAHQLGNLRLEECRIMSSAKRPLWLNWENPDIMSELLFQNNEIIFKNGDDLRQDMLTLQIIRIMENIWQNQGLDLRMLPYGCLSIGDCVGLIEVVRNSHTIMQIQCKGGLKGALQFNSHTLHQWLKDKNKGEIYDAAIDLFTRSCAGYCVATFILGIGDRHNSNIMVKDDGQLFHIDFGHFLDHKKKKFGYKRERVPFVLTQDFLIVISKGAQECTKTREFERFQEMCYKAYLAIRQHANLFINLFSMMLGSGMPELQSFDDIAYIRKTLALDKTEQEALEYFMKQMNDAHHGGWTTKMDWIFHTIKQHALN
Chain of PIK3CG (human) (P48736 whole entry, looked up): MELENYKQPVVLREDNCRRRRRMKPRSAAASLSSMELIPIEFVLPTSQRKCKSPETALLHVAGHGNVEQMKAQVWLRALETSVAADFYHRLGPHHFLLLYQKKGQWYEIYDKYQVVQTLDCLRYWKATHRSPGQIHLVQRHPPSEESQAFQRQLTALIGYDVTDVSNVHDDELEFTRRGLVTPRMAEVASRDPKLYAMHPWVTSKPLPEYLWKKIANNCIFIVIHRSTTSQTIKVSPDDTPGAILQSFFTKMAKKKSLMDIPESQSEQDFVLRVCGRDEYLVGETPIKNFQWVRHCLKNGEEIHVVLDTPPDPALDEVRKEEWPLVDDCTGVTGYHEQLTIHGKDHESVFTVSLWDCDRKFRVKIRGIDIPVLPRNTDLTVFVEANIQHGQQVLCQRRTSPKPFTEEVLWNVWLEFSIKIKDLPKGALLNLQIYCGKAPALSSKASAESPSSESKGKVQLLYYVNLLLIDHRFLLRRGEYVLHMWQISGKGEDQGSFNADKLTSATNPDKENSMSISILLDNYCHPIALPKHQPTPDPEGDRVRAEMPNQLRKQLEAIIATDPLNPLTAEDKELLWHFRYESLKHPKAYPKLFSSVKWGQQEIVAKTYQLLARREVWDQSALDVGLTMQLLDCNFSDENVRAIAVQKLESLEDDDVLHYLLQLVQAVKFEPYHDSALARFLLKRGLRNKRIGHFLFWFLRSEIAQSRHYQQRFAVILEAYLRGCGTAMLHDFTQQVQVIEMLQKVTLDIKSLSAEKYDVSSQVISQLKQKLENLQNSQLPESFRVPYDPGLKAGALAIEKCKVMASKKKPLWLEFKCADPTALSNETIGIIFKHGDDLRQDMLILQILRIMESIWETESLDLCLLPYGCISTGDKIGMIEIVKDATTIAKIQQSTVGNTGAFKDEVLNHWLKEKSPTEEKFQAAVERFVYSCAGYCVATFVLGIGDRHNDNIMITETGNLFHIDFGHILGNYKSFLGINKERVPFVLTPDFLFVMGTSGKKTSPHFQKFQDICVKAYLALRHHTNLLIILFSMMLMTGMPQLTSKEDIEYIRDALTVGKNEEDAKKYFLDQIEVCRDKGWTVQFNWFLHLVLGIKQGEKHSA

By IC50 is commonly meant the concentration at which inhibition is half-maximal. Read a high IC50 as lower potency. For `CN(C)S(=O)(=O)c1cccc(-c2ccc3nc(NC(=O)NCCC(=O)OC(C)(C)C)sc3c2)c1`, the values for the half-inhibitory concentration (IC50) in assay [1], in assay [2] and in assay [3] were more than 20 µM, less than 1 µM and less than 1 µM, respectively.
For `CC(C)c1noc(CCNC(=O)Nc2nc3ccc(-c4cccc(S(=O)(=O)NCCO)c4)cc3s2)n1`, the IC50 in assay [2] and in assay [3] was less than 1 µM each time.
As to `CC(C)n1cnc(CCNC(=O)Nc2nc3ccc(-c4cccc(S(C)(=O)=O)c4)cc3s2)c1`, the IC50 in assay [2] and in assay [3] was less than 1 µM each time.
Consider `CC(=O)Nc1nc2ccc(-c3cccc(S(=O)(=O)N4CCC(O)CC4)c3)cc2s1`, for which the concentration for half-maximal inhibition (IC50) in assay [1], in assay [4] and in assay [3] was less than 1 µM in each case.
With `CCOC(=O)CCNC(=O)Nc1nc2ccc(-c3cccc(S(C)(=O)=O)c3)cc2s1`, the half-maximal inhibitory concentration (IC50) in assay [2] and in assay [3] was less than 1 µM in each case.
For `CC(=O)Nc1nc2ccc(-c3cccc(S(=O)(=O)NCCN4CCOCC4)c3)cc2s1`, the IC50 in assay [1], in assay [4] and in assay [3] was less than 1 µM each time.
With `CC(=O)Nc1nc2ccc(-c3cccc(S(=O)(=O)NC(CO)CO)c3)cc2s1`, the IC50 in assay [1], in assay [4] and in assay [3] was less than 1 µM each time.
For the molecule `CC(=S)Nc1cn2nc(-c3cccc(S(C)(=O)=O)c3)ccc2n1`, the IC50 in assay [1], in assay [4] and in assay [3] was less than 1 µM throughout.
For the molecule `CC(=O)Nc1cn2nc(-c3cccc(S(C)(=O)=O)c3)ccc2n1`, the IC50 in assay [1], in assay [4] and in assay [3] was less than 1 µM throughout.
Regarding `CC(=O)Nc1nc2ccc(-c3ccc(Cl)c(S(=O)(=O)NCCO)c3)cc2s1`, the IC50 in assay [1], in assay [4] and in assay [3] was less than 1 µM throughout.
On to `CC(C)(C)OC(=O)CCNC(=O)Nc1nc2ccc(-c3cccc(S(=O)(=O)NCCO)c3)cc2s1`, for which the IC50 in assay [2] and in assay [3] was less than 1 µM each time.
Consider `CS(=O)(=O)c1cccc(-c2ccc3nc(NC=O)sc3c2)c1`, for which the IC50 in assay [2] was more than 20 µM.
In the case of `CC(=O)Nc1nc2ccc(-c3cccc(NS(C)(=O)=O)c3)cc2s1`, the IC50 in assay [1], in assay [4] and in assay [3] was less than 1 µM throughout.
For the molecule `COc1cc(-c2ccc3nc(NC(=O)NCCc4nc(C(C)C)no4)sc3c2)ccc1O`, the IC50 in assay [2] was less than 1 µM.
Take `CN(C)C(=O)CNC(=O)Nc1nc2ccc(-c3cccc(S(C)(=O)=O)c3)cc2s1`: the IC50 in assay [1], in assay [4] and in assay [3] was less than 1 µM in each case.
Regarding `CC(=O)Nc1nc2ccc(-c3cccc(S(=O)(=O)NC4CCCOC4)c3)cc2s1` (stereo not drawn), the IC50 in assay [1], in assay [4] and in assay [3] was less than 1 µM throughout.
Take `CC(=O)Nc1nc2ccc(-c3cccc(S(=O)(=O)NCCCO)c3)cc2s1`: the half-inhibitory concentration (IC50) in assay [1], in assay [4] and in assay [3] was less than 1 µM each time.
On to `CC(=O)Nc1nc2ccc(-c3cccc(S(=O)(=O)NC4CCCNC4)c3)cc2s1` (stereo not drawn), for which the IC50 in assay [1], in assay [4] and in assay [3] was less than 1 µM each time.
In assay [2], `CC(=O)Nc1nc2ccc(-c3cccc(C(=O)NCCO)c3)cc2s1` showed a 50% inhibitory concentration (IC50) of more than 20 µM.
As to `CS(=O)(=O)c1cccc(-c2ccc3nc(NC(=O)NCCC(=O)N4CCOCC4)sc3c2)c1`, the IC50 in assay [2] and in assay [3] was less than 1 µM each time.
Regarding `CC(=O)Nc1nc2ccc(-c3cccc(S(=O)(=O)NCC(O)CO)c3)cc2s1` (stereo not drawn), the half-inhibitory concentration (IC50) in assay [1], in assay [4] and in assay [3] was less than 1 µM each time.
Regarding `CS(=O)(=O)c1cccc(-c2ccc3nc(NC(=O)NCC(=O)N4CCOCC4)sc3c2)c1`, the concentration for half-maximal inhibition (IC50) in assay [1], in assay [4] and in assay [3] was less than 1 µM in each case.
`CC(=O)Nc1cn2nc(-c3cccc(S(=O)(=O)NCCO)c3)ccc2n1`: the 50% inhibitory concentration (IC50) in assay [1], in assay [4] and in assay [3] was less than 1 µM each time.
